# Results: ChEMBL document CHEMBL1201862, “PubChem BioAssay data set” (2004)
# Active and inactive are the calls of the source.
# Experiments:
# Ephrin type-A receptor 4 = Ephrin type-A receptor 4 (Mus musculus, UniProt Q03137); test: inhibitors of EphA4 binding to KYL peptide, primary screen, biochemical, colorimetric, mouse EphA4 (AID 689); format: functional
# cells [1] = test: cells
# [2] = biological target: T1, Oxysterols receptor LXR-beta (Homo sapiens, UniProt P55055); format: functional, cell-based;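 also: Cell-based luminescence dose-response assay of agonist activity at LXR, run as a confirmatory counterscreen to a daf-12 agonist screen; HEK293 cells with Gal4-LXR fusion and GAL4-driven luciferase reporter; agonist potency from rising luciferase signal of a Gal4-LXR reporter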
# T1 sequence (P55055 whole entry): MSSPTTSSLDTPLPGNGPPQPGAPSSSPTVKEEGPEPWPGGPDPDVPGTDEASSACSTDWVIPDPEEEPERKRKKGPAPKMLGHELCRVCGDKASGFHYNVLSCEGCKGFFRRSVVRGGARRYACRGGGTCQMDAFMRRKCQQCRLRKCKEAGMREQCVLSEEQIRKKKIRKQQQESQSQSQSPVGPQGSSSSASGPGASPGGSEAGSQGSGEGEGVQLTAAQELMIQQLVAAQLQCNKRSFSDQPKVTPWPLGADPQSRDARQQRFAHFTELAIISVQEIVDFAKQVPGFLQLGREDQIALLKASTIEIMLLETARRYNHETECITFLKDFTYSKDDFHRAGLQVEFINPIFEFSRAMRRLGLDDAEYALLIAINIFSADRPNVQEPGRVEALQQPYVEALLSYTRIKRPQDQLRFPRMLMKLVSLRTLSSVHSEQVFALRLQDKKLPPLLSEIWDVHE
# H9c2 = test: cells; format: functional, cell-based; settings: Rattus norvegicus, H9c2, Myocardium;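 also: confirmatory concentration-response retest of ultra-high-throughput screening hits for modulation of myocardial damage; cell death induced by hydrogen peroxide oxidative stress; compound pretreatment for 60 min then peroxide exposure for 2 h; potency is for protecting the cells against peroxide damage rather than for killing them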
# cells [3] = format: functional, cell-based; settings: HEK-CNG
# Galanin receptor type 3 = biological target: T2, Galanin receptor type 3 (Homo sapiens, UniProt O60755); test: Fluorescence-based cell-based primary high throughput dose response assay to identify antagonists of the Galanin Receptor 3 (GalR3).; format: functional
# T2 sequence (O60755 whole entry): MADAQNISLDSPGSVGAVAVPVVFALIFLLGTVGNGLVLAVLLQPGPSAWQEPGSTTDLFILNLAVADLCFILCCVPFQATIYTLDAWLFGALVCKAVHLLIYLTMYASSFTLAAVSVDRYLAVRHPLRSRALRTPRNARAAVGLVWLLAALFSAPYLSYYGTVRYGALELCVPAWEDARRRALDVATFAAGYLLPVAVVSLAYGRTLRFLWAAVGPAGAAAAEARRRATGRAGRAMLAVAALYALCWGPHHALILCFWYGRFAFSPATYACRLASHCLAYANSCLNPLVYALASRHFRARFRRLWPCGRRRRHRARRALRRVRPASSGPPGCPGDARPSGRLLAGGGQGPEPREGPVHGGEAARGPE
# [4] = biological target: T3, Carboxy-terminal domain RNA polymerase II polypeptide A small phosphatase 1 (Homo sapiens, UniProt Q9GZU7); test: inhibitors of CTDSP1, concentration-response testing, biochemical assay, absorbance-based, actives from ultra-high-throughput screening (AID 540297); format: functional
# T3 sequence (Q9GZU7 whole entry): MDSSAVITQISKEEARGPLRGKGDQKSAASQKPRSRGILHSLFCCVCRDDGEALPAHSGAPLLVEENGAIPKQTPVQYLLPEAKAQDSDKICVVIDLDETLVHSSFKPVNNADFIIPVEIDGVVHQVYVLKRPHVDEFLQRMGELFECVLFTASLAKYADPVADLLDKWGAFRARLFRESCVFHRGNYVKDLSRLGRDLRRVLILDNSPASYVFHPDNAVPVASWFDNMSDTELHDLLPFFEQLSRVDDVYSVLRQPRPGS
# Caspase-6 = biological target: T4, Caspase-6 (Homo sapiens, UniProt P55212); test: human caspase-6 inhibitors, dose response, biochemical, VEID-R110 fluorescence, cherry-pick (AID 720632)
# T4 sequence (P55212 whole entry): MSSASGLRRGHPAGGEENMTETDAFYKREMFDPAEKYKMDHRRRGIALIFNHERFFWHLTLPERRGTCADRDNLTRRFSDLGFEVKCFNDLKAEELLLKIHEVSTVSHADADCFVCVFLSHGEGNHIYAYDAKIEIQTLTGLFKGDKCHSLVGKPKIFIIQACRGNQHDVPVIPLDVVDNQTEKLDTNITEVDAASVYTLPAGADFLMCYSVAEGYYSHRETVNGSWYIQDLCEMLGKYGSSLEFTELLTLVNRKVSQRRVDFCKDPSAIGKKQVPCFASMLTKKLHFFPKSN
# [5] = biological target: T5, Long-chain-fatty-acid--AMP ligase FadD28 (Mycobacterium tuberculosis, UniProt P9WQ59); test: Fluorescence polarization aasay to screen for inhibitors that compete for the binding of FadD28 to a bisubstrate Measured in Biochemical System Using Plate Reader - 2147-01_Inhibitor_Dose_CherryPick_Activity.; format: functional, Mycobacterium tuberculosis H37Rv
# T5 sequence (P9WQ59 whole entry): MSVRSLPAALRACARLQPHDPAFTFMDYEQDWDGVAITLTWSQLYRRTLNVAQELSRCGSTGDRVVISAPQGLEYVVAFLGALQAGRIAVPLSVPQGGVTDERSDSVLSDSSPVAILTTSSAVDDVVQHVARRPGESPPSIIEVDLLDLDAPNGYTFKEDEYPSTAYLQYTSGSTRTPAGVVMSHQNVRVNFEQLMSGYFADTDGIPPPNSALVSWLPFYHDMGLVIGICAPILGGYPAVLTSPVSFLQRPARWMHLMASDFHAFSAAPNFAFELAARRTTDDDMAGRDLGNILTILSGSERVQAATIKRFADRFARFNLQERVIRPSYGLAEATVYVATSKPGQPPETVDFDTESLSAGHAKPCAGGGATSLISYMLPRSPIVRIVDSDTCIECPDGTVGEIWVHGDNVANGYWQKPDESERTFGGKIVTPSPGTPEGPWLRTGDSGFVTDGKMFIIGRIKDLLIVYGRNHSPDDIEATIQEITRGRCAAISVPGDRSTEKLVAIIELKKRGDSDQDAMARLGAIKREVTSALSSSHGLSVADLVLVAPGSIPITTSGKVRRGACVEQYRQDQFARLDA
# [6] = biological target: Luciferin 4-monooxygenase (Photinus pyralis, UniProt P08659); test: firefly luciferase enzyme inhibitors, dose response, biochemical, luminescence (AID 1891)
# [7] = Luminescence Cell-Based Dose Confirmation HTS to Identify Inhibitors of Platelet Dense Granule Release. [Related pubchem assays: 1663 (Primary HTS), 1678 (Summary of Project)]; format: functional
# [8] = cytotoxicity in OVCAR8 ovarian cancer cells, dose response, PAX8 project, cell-based, plate reader, dry powder samples (AID 743197); format: functional; settings: OVCAR-8
# [9] = IOSE-T80 ovarian epithelial cell cytotoxicity, dose response, cytotoxicity control for PAX8 inhibitor project, plate reader, dry powder samples (AID 743045); format: functional, cell-based
# [10] = IGROV1 ovarian cancer cell cytotoxicity, dose response, PAX8 inhibitor project, plate reader, dry powder samples (AID 743043); format: functional, cell-based; settings: IGROV-1
# [11] = NIH:OVCAR-3 ovarian cancer cell cytotoxicity, dose response, PAX8 inhibitor project, plate reader, dry powder samples (AID 743044); format: functional, cell-based
# Paired box protein Pax-8 = Paired box protein Pax-8 (Homo sapiens, UniProt Q06710); test: inhibitors of PAX8-driven TPO luciferase reporter, dose response, RMG-I cells, cherry-pick (AID 687027); format: functional, cell-based;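 also: luciferase reporter driven by Pax8 target thyroperoxidase promoter measured by SteadyGlo luminescence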
# [12] = Artemis endonuclease inhibitor potency, dose response, biochemical, fluorescence intensity (AID 720701); format: functional;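 also: Artemis endonuclease enzyme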
# [13] = biological target: T6, Heat shock factor protein 1 (Mus musculus, UniProt P38532); test: HSF1 potentiators in luciferase reporter cells, confirmation, cell-based, NIH3T3, luminescence, dose retest (AID 435004); format: functional;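 also: stress induced by proteasome inhibitor MG132 added 30 min after compound; luciferase reporter driven by HSF1 response element in NIH3T3 cells; actives raise luminescence as potentiators of the MG132 stress response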
# T6 sequence (P38532 whole entry): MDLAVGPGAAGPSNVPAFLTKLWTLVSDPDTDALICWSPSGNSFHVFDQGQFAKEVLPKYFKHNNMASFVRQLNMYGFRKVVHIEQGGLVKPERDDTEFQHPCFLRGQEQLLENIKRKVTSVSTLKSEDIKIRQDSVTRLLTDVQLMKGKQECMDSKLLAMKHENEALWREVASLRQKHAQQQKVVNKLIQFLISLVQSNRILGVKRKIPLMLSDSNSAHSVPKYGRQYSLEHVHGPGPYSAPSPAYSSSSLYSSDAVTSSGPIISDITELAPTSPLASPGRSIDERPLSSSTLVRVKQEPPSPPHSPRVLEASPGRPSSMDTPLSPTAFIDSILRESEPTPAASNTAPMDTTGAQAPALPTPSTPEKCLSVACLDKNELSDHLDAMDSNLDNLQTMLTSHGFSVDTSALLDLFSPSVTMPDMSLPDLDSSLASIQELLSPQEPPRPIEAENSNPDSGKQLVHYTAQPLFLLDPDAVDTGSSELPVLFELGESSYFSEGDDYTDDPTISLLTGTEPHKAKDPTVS
# [14] = biological target: Protein-tyrosine kinase 2-beta (Homo sapiens, UniProt Q14289);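 also: potency of inhibitors of PYK2 kinase phosphorylation of poly-GT substrate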
# Estrogen receptor beta [15] = biological target: T7, Estrogen receptor beta (Homo sapiens, UniProt Q92731); test: ERβ–SRC-3 coactivator interaction inhibitors, confirmation, orthogonal assay, biochemical, ELISA, streptavidin-HRP readout (AID 1060)
# Estrogen receptor beta [16] = biological target: T7, Estrogen receptor beta
# [17] = biological target: T8, Rac GTPase-activating protein 1 (Homo sapiens, UniProt Q9H0H5); test: MgcRacGAP GTPase-activating activity inhibitors, confirmation, biochemical, ADP Hunter fluorescence, primary and confirmatory (AID 624330); format: functional
# T8 sequence (Q9H0H5 whole entry): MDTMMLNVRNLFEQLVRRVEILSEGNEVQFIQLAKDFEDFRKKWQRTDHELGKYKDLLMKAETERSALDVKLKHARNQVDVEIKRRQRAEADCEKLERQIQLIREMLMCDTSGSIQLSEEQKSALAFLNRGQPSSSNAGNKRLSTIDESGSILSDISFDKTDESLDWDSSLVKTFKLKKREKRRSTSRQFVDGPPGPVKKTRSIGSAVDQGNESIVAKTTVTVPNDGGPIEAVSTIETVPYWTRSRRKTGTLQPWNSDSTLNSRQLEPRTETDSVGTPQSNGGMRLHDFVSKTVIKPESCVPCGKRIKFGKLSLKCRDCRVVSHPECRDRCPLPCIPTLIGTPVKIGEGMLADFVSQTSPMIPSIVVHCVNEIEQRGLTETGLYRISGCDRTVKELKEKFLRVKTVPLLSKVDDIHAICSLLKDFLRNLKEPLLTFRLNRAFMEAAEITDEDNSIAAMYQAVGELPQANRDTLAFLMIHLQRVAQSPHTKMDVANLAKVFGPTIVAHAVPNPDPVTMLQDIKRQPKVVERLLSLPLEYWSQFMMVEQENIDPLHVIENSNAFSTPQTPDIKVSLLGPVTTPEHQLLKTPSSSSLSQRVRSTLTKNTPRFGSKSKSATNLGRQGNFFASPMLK
# [18] = biological target: Glucose-6-phosphate 1-dehydrogenase (Homo sapiens, UniProt P11413); test: human G6PD enzyme inhibitors, dose response, selectivity assay for P. falciparum G6PD inhibitor project, biochemical, fluorescence (AID 504792); format: functional
# [19] = HeLa cell cytotoxicity, dose response, cytotoxicity control for MgcRacGAP inhibitor project (AID 624300); format: functional
# Kallikrein-7 = Kallikrein-7 (Homo sapiens, UniProt P49862); test: Fluorescence Intensity-based biochemical primary high throughput dose response assay to identify activators of kallikrein-7 (K7) zymogen.
# Sequence of Kallikrein-7 (P49862 whole entry): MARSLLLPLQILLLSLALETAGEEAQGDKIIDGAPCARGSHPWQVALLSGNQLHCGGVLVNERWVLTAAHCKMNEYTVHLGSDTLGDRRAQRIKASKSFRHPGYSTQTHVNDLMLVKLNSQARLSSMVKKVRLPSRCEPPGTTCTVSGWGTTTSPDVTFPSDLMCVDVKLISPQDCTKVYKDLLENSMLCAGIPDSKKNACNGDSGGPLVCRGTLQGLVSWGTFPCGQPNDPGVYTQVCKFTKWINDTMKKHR
# Sequence of Ephrin type-A receptor 4 (Q03137 whole entry): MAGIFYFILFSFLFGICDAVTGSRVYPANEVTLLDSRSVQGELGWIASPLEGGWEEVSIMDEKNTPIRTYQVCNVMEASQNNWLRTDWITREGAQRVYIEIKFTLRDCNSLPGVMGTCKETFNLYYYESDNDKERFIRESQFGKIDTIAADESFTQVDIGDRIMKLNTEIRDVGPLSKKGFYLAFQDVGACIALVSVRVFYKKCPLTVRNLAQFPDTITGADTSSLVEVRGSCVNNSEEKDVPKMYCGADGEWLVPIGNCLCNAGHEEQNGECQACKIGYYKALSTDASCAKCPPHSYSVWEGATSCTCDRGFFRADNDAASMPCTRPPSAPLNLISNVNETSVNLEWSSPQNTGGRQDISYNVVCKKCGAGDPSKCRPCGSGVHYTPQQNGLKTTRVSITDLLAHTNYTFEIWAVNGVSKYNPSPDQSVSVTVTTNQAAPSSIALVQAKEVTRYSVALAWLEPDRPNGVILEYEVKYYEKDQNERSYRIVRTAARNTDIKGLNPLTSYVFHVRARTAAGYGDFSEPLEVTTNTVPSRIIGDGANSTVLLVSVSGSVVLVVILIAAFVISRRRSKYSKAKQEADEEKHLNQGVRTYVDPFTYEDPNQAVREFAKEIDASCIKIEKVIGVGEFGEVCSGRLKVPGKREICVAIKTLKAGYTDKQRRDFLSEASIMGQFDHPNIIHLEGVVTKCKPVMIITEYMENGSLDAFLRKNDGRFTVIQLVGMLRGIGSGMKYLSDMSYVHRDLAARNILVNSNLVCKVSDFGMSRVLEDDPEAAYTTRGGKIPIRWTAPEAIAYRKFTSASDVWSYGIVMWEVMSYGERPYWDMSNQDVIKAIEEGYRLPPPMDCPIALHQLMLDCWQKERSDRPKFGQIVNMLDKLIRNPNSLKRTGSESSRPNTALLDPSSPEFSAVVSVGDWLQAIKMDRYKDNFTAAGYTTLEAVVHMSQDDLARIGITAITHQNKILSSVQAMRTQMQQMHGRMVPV
# T7 sequence (Q92731 whole entry): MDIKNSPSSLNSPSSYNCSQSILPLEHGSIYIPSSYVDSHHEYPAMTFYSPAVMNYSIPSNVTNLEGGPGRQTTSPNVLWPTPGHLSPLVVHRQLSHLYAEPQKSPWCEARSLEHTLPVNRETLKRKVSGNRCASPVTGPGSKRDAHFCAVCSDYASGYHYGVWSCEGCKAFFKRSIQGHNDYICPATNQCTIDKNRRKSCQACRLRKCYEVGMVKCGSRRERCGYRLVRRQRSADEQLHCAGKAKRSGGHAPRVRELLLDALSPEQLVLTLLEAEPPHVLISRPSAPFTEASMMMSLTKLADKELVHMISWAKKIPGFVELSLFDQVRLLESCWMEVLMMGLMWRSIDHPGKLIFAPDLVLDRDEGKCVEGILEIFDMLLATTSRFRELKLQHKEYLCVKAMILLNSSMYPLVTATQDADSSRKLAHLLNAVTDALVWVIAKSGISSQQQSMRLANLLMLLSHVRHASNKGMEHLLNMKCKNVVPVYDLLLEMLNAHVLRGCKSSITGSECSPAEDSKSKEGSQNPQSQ
# Sequence of Paired box protein Pax-8 (Q06710 whole entry): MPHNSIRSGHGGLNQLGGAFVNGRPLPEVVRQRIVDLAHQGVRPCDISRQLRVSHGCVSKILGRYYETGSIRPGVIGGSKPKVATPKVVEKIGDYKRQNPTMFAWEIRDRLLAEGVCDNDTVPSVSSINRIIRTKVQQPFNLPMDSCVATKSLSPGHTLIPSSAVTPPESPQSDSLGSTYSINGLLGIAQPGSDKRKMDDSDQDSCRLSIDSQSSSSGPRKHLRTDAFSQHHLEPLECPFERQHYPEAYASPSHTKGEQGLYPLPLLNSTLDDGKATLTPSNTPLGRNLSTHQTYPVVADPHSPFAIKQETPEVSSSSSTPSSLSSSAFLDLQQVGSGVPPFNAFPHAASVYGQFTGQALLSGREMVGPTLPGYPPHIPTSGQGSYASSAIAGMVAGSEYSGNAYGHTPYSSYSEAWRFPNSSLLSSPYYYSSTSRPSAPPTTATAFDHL
# Sequence of Glucose-6-phosphate 1-dehydrogenase (P11413 whole entry): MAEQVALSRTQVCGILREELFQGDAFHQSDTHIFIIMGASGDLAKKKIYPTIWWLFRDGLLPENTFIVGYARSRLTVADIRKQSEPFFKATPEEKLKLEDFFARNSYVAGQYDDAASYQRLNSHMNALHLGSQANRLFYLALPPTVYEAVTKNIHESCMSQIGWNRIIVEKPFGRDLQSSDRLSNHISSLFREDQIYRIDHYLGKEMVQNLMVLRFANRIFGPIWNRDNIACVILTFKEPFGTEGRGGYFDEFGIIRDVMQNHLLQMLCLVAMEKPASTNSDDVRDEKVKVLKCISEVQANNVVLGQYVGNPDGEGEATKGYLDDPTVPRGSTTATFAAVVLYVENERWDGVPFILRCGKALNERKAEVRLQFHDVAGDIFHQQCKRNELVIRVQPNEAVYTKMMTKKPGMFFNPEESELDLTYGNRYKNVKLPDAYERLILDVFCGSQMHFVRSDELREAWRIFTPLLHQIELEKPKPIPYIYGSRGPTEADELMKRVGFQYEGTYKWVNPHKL
# Sequence of Luciferin 4-monooxygenase (P08659 whole entry): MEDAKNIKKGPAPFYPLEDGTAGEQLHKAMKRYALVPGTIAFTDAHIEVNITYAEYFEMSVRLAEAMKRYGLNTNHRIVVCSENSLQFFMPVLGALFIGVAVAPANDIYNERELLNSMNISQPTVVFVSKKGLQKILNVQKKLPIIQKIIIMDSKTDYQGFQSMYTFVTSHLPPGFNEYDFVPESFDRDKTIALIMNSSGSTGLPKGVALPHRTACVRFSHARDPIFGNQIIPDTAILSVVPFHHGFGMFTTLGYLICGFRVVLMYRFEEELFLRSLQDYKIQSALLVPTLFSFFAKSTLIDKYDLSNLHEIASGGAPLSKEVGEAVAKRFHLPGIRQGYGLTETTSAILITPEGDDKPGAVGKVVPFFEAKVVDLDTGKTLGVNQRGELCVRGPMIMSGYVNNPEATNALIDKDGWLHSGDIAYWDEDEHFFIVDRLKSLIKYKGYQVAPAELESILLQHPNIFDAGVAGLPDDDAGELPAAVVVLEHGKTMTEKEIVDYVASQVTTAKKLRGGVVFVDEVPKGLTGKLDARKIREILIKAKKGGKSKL
# Sequence of Protein-tyrosine kinase 2-beta (Q14289 whole entry): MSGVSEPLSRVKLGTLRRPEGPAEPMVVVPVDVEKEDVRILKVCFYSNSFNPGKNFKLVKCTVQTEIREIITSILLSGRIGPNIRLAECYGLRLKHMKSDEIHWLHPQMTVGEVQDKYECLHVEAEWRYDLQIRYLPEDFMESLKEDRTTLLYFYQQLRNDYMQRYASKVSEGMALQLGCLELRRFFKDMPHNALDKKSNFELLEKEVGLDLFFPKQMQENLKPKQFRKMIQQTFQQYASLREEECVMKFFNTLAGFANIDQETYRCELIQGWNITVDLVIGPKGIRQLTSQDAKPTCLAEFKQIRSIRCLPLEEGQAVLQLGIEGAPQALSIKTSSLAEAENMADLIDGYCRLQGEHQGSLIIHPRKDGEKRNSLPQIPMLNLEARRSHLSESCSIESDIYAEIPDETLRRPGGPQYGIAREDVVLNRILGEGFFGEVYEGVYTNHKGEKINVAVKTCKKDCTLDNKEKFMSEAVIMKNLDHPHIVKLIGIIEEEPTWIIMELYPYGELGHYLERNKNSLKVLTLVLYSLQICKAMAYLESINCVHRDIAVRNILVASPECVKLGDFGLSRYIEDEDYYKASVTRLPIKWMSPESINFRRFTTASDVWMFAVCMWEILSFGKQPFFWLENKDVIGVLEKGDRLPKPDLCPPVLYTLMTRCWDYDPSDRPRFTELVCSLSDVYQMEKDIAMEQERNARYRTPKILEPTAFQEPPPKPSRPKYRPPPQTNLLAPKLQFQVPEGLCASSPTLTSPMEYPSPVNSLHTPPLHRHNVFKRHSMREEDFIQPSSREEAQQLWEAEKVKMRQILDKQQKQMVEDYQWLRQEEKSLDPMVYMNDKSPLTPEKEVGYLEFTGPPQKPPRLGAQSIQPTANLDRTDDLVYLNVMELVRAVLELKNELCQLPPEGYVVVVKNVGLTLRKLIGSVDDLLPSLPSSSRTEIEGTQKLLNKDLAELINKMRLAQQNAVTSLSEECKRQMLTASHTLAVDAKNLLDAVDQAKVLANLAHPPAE
smiles,measurement,setting,value
Cc1ccc(S(=O)(=O)/C(C#N)=C/c2c(N3CCOCC3)nc3ccccn3c2=O)cc1,IC50,Ephrin type-A receptor 4,> 100 µM (not active)
CC1CCCCN1C(=O)CSc1nnc(-c2ccccc2O)o1 (centres undefined),EC50,cells [1],> 67.5 µM (inactive)
same,EC50,[2],> 67.5 µM (inactive)
N#CC(c1nc2ccccc2nc1N1CCCC1)S(=O)(=O)c1cccs1 (centres undefined),IC50,H9c2,> 79 µM (inactive)
same,IC50,Ephrin type-A receptor 4,> 100 µM (not active)
Cc1ccc(-c2nc(O)c3sccc3n2)cc1,EC50,cells [1],> 67.5 µM (inactive)
same,EC50,[2],> 67.5 µM (inactive)
O=[N+]([O-])c1[nH]c2nc(O)nc-2cc1Cl,EC50,cells [3],> 29.9 µM (inactive)
same,IC50,Galanin receptor type 3,16.7 µM (inactive)
CC1CCC2(CC1)NC(=O)N(CC(=O)Nc1sc3c(c1C(N)=O)CCC3)C2=O (centres undefined),IC50,[4],3.44 µM (active)
same,AC50,Caspase-6,10.9 µM (active)
O=C(O)c1ccc(N/N=C/c2cc(Br)cs2)cc1,AC50,[5],32 µM (inactive)
Cc1ccc(N=Nc2cc(C)ccc2N)cc1,EC50,cells [1],> 67.5 µM (inactive)
same,EC50,[2],> 67.5 µM (inactive)
same,EC50,[6],0.149 µM (active)
same,EC50,[7],3.15 µM (active)
C[C@@H]1CN([C@H](C)CO)C(=O)c2cc(NC(=O)Nc3ccc(C(F)(F)F)cc3)ccc2O[C@@H](C)CCCCO[C@H]1CN(C)C(=O)c1ccccc1,AC50,[8],50.7 µM (active)
same,AC50,[9],37.5 µM (active)
same,AC50,[10],35.6 µM (active)
same,AC50,[11],33.2 µM (active)
same,AC50,Paired box protein Pax-8,12.1 µM (active)
CC(C)(C)c1cc(/C=N/NC(=O)Cc2nc3ccccc3[nH]2)cc(C(C)(C)C)c1O,IC50,[12],> 20 µM (inactive)
CCOC(=O)c1sc2c(c1C)C(c1cccs1)C1=C(O)CCCC1=N2 (centres undefined),EC50,[13],80.5 µM (active)
same,IC50,[14],> 69.5 µM (not active)
CC(=O)NC12CC3CC(C1)CC(C(=O)OCC(=O)Nc1ncc(Cl)c(C)c1Cl)(C3)C2,IC50,Estrogen receptor beta [15],< 0.023 µM (not active)
same,IC50,Estrogen receptor beta [16],9.36 µM (active)
COc1cccc(CNc2ccc3[nH]c(O)nc3c2)c1OCc1ccccc1Cl,IC50,[17],69 µM (active)
same,IC50,[18],> 80 µM (inactive)
same,CC50,[19],100 µM (active)
CCC(NC(=O)CCc1c(C)c2cc3c(C)c(C)oc3cc2oc1=O)C(=O)N[C@@H](Cc1ccccc1)C(=O)O (some centres undefined),EC50,Kallikrein-7,> 69.5 µM (inactive)
Nc1c(Br)cc(Br)c2c1nc(O)c1ccccc12,AC50,Caspase-6,18.1 µM (active)
CCSC1=N/C(=C\c2ccc(-c3ccccc3[N+](=O)[O-])o2)C(=O)S1,IC50,[12],0.967 µM (active)
same,IC50,Ephrin type-A receptor 4,> 100 µM (not active)
Cc1ccc(NC(=O)CNc2ccccc2N2CCCC2=O)cc1S(=O)(=O)N1CCCCC1,AC50,[5],48.3 µM (active)
